{"source": "the kinase profiling compilation of Christmann-Franck et al. (2016)", "experiment_in_all_cases": "radiometric filter-binding kinase assay, Kinase HotSpot", "conditions_in_all_cases": "compound 0.5 µM; ATP 10 µM", "key": {"LYN (human)": {"target": "LYN (human) (UniProt P07948)", "sequence (P07948 whole entry, looked up)": "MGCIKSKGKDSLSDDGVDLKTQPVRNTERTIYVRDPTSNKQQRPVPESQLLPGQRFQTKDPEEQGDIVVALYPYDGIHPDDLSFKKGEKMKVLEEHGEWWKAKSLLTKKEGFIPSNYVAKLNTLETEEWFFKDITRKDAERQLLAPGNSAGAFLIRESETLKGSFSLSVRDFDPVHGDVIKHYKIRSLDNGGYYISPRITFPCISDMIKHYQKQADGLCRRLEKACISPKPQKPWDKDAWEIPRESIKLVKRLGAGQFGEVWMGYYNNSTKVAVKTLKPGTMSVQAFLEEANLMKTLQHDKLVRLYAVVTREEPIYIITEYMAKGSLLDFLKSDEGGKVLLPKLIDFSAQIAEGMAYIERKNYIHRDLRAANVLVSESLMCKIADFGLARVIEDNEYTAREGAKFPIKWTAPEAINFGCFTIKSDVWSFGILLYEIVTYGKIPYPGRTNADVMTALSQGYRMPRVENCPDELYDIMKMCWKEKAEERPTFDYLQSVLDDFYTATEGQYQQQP"}, "GRK4 (human)": {"target": "GRK4 (human) (UniProt P32298)"}, "CDK6 CCND3 (human)": {"target": "CDK6 CCND3 (human) (UniProt P30281+Q00534)"}, "NEK3 (human)": {"target": "NEK3 (human) (UniProt P51956)"}, "DAPK3 (human)": {"target": "DAPK3 (human) (UniProt O43293)"}, "PRKG1 (human)": {"target": "PRKG1 (human) (UniProt Q13976)", "sequence (Q13976 whole entry, looked up)": "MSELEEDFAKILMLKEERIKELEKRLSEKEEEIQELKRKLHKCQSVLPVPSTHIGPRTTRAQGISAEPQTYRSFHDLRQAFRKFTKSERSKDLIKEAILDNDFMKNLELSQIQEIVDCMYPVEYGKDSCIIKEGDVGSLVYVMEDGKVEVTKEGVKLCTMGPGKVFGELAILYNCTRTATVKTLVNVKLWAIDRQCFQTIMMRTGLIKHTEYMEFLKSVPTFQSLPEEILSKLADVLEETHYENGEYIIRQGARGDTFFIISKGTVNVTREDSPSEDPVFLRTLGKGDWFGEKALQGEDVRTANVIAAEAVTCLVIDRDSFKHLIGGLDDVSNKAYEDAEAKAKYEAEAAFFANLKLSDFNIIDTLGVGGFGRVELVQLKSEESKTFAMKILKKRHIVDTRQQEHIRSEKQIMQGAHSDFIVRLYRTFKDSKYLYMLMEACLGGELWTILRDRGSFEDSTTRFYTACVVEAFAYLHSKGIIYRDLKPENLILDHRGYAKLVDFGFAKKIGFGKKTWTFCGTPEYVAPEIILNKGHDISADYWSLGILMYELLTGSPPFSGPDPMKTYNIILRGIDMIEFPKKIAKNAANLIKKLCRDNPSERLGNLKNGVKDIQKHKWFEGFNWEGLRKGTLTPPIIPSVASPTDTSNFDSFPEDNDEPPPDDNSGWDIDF"}, "BMX (human)": {"target": "BMX (human) (UniProt P51813)"}, "BTK (human)": {"target": "BTK (human) (UniProt Q06187)"}, "HIPK1 (human)": {"target": "HIPK1 (human) (UniProt Q86Z02)", "sequence (Q86Z02 whole entry, looked up)": "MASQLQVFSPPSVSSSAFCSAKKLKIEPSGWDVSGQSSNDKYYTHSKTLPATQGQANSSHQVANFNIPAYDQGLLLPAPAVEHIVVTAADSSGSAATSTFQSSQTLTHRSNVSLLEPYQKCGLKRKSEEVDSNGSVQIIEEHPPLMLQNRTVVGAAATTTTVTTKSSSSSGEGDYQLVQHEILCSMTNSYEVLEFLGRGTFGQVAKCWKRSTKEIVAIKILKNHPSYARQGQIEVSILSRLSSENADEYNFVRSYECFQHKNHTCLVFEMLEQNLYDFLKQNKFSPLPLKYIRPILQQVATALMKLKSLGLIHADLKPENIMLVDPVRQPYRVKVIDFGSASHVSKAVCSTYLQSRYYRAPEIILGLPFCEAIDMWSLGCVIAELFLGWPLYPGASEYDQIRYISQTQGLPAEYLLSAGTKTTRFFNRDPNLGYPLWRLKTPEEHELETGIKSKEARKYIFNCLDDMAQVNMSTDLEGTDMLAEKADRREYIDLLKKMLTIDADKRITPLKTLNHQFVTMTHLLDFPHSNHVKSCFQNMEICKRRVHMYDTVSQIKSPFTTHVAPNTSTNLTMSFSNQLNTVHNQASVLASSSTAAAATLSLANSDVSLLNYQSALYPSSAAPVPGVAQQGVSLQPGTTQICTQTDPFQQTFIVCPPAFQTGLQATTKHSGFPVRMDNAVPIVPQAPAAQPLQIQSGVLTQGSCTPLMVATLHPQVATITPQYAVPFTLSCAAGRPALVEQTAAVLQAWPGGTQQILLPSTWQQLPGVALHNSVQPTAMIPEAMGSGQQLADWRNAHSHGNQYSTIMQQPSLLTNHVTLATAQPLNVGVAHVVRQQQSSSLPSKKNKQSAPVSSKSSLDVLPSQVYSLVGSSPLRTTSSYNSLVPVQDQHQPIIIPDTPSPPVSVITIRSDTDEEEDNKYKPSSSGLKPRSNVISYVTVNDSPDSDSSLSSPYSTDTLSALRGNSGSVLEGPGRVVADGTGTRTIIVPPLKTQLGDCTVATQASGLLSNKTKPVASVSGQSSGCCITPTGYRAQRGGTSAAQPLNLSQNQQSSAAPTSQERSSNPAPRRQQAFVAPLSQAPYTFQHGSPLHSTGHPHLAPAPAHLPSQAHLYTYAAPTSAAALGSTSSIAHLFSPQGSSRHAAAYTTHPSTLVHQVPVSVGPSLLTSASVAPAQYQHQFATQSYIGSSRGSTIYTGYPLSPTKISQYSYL"}, "CSNK2A1 (human)": {"target": "CSNK2A1 (human) (UniProt P68400)"}, "TYRO3 (human)": {"target": "TYRO3 (human) (UniProt Q06418)"}, "SGK2 (human)": {"target": "SGK2 (human) (UniProt Q9HBY8)"}, "RPS6KA2 KD1 KD2 (human)": {"target": "RPS6KA2 KD1 KD2 (human) (UniProt Q15349)", "sequence (Q15349 whole entry, looked up)": "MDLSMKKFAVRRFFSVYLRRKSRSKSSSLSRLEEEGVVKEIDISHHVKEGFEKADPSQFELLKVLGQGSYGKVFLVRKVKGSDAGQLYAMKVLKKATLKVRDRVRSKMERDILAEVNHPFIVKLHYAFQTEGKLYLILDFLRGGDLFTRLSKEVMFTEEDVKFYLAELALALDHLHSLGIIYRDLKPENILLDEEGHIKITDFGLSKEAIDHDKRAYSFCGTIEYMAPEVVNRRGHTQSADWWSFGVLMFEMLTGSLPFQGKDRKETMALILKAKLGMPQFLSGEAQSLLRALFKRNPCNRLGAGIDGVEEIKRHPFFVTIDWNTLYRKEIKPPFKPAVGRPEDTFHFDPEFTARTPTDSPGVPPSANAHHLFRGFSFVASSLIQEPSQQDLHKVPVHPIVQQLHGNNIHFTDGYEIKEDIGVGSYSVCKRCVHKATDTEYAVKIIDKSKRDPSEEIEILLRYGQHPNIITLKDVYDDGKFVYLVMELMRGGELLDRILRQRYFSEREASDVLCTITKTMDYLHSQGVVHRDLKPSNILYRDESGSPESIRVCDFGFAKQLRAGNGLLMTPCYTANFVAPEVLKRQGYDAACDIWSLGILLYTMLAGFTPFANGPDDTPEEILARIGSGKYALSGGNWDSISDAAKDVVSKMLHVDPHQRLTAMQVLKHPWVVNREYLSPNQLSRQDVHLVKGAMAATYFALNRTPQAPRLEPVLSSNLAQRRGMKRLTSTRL"}, "PKN1 (human)": {"target": "PKN1 (human) (UniProt Q16512)"}, "STK10 (human)": {"target": "STK10 (human) (UniProt O94804)"}, "TLK2 (human)": {"target": "TLK2 (human) (UniProt Q86UE8)"}, "FGFR2 (human)": {"target": "FGFR2 (human) (UniProt P21802)", "sequence (P21802 whole entry, looked up)": "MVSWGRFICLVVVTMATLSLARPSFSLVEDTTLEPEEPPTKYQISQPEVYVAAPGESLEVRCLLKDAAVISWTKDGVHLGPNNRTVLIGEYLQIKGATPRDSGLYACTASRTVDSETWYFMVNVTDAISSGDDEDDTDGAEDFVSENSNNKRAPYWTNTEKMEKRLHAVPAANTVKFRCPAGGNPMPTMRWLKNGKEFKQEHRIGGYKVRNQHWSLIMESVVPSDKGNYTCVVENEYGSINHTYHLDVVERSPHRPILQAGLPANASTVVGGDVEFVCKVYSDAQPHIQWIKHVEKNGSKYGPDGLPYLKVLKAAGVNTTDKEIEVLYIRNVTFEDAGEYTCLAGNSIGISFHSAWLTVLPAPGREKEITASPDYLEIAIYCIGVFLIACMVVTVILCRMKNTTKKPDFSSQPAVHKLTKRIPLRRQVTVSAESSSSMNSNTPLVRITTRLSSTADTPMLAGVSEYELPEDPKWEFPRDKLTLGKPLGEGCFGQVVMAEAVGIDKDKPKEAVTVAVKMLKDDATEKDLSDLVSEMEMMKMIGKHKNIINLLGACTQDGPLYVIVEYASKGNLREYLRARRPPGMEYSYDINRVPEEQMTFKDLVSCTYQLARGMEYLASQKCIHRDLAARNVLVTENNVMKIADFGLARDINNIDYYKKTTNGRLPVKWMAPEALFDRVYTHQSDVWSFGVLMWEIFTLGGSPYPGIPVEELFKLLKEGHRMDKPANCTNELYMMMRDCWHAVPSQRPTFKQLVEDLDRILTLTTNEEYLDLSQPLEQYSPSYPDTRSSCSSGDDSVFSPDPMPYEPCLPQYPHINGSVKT"}, "RPS6KA4 KD2 (human)": {"target": "RPS6KA4 KD2 (human) (UniProt O75676)"}, "STK3 (human)": {"target": "STK3 (human) (UniProt Q13188)"}, "DYRK2 (human)": {"target": "DYRK2 (human) (UniProt Q92630)"}, "JAK3 JH1 JH2 (human)": {"target": "JAK3 JH1 JH2 (human) (UniProt P52333)"}, "MAP3K8 (human)": {"target": "MAP3K8 (human) (UniProt P41279)"}, "GRK7 (human)": {"target": "GRK7 (human) (UniProt Q8WTQ7)"}, "MAPK12 (human)": {"target": "MAPK12 (human) (UniProt P53778)"}, "PLK1 (human)": {"target": "PLK1 (human) (UniProt P53350)"}, "IRAK4 (human)": {"target": "IRAK4 (human) (UniProt Q9NWZ3)"}, "GSK3B (human)": {"target": "GSK3B (human) (UniProt P49841)"}, "MLTK (human)": {"target": "MLTK (human) (UniProt Q9NYL2)"}, "EPHB4 (human)": {"target": "EPHB4 (human) (UniProt P54760)"}, "DMPK (human)": {"target": "DMPK (human) (UniProt Q09013)"}, "SRC (human)": {"target": "SRC (human) (UniProt P12931)"}, "MST1R (human)": {"target": "MST1R (human) (UniProt Q04912)"}, "EPHA5 (human)": {"target": "EPHA5 (human) (UniProt P54756)"}, "MYLK (human)": {"target": "MYLK (human) (UniProt Q15746)"}, "MARK2 (human)": {"target": "MARK2 (human) (UniProt Q7KZI7)", "sequence (Q7KZI7 whole entry, looked up)": "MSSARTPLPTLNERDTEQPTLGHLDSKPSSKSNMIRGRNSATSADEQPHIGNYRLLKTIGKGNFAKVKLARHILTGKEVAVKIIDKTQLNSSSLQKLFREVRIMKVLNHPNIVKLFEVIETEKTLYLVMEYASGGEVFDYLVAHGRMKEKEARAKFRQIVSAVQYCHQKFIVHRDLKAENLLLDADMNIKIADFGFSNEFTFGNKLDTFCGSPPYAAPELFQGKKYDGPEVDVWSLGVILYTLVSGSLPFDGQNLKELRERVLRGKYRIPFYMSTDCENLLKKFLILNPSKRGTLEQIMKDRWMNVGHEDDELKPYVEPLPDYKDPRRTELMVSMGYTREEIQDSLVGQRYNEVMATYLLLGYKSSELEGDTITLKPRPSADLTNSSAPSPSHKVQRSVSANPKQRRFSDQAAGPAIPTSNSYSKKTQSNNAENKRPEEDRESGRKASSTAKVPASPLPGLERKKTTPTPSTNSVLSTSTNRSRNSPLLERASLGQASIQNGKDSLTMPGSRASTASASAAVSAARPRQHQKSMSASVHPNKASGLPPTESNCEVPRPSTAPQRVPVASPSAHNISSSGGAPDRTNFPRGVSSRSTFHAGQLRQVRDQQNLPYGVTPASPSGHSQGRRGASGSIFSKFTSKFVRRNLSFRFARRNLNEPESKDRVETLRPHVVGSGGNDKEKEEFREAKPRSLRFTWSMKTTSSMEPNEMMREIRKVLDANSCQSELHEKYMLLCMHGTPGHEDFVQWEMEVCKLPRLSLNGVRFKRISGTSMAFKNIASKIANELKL"}, "AURKA (human)": {"target": "AURKA (human) (UniProt O14965)"}, "PNCK (human)": {"target": "PNCK (human) (UniProt Q6P2M8)", "sequence (Q6P2M8 whole entry, looked up)": "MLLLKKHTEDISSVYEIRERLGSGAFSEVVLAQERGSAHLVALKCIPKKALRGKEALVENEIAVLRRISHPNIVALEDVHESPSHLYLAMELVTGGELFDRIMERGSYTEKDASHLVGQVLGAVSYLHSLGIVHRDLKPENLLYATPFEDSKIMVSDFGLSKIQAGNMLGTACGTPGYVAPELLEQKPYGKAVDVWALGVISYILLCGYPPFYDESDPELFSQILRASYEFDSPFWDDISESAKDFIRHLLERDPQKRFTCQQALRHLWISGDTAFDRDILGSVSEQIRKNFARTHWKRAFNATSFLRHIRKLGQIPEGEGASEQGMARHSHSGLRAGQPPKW"}, "CHEK2 (human)": {"target": "CHEK2 (human) (UniProt O96017)"}, "ULK3 (human)": {"target": "ULK3 (human) (UniProt Q6PHR2)"}, "FGFR4 (human)": {"target": "FGFR4 (human) (UniProt P22455)"}, "FER (human)": {"target": "FER (human) (UniProt P16591)"}, "CSK (human)": {"target": "CSK (human) (UniProt P41240)"}}, "note": "Values joined by “and” are separate entries in the source; they are usually repeats but may differ in a detail not shown here. Equal entries are not always repeated."}
{"smiles": "Nc1ccc2ncnc(NCCc3ccc(Oc4ccccc4)cc3)c2c1", "values": [{"measurement": "residual activity", "setting": "LYN (human)", "value": "101% and 103%"}, {"measurement": "residual activity", "setting": "GRK4 (human)", "value": 99.6, "unit": "%"}, {"measurement": "residual activity", "setting": "CDK6 CCND3 (human)", "value": 100, "unit": "%"}, {"measurement": "residual activity", "setting": "NEK3 (human)", "value": 108, "unit": "%"}, {"measurement": "residual activity", "setting": "DAPK3 (human)", "value": 104, "unit": "%"}, {"measurement": "residual activity", "setting": "PRKG1 (human)", "value": "93.1% and 94.5%"}, {"measurement": "residual activity", "setting": "BMX (human)", "value": 102, "unit": "%"}, {"measurement": "residual activity", "setting": "BTK (human)", "value": 96.8, "unit": "%"}, {"measurement": "residual activity", "setting": "HIPK1 (human)", "value": 104, "unit": "%"}, {"measurement": "residual activity", "setting": "CSNK2A1 (human)", "value": 95.2, "unit": "%"}, {"measurement": "residual activity", "setting": "TYRO3 (human)", "value": 101, "unit": "%"}, {"measurement": "residual activity", "setting": "SGK2 (human)", "value": 99.6, "unit": "%"}, {"measurement": "residual activity", "setting": "RPS6KA2 KD1 KD2 (human)", "value": 100, "unit": "%"}, {"measurement": "residual activity", "setting": "PKN1 (human)", "value": 105, "unit": "%"}, {"measurement": "residual activity", "setting": "STK10 (human)", "value": 90.8, "unit": "%"}, {"measurement": "residual activity", "setting": "TLK2 (human)", "value": 92.8, "unit": "%"}, {"measurement": "residual activity", "setting": "FGFR2 (human)", "value": 95.5, "unit": "%"}, {"measurement": "residual activity", "setting": "RPS6KA4 KD2 (human)", "value": 107, "unit": "%"}, {"measurement": "residual activity", "setting": "STK3 (human)", "value": 105, "unit": "%"}, {"measurement": "residual activity", "setting": "DYRK2 (human)", "value": 89.6, "unit": "%"}, {"measurement": "residual activity", "setting": "JAK3 JH1 JH2 (human)", "value": 96.9, "unit": "%"}, {"measurement": "residual activity", "setting": "MAP3K8 (human)", "value": 97.2, "unit": "%"}, {"measurement": "residual activity", "setting": "GRK7 (human)", "value": 104, "unit": "%"}, {"measurement": "residual activity", "setting": "MAPK12 (human)", "value": 93.6, "unit": "%"}, {"measurement": "residual activity", "setting": "PLK1 (human)", "value": 91.1, "unit": "%"}, {"measurement": "residual activity", "setting": "IRAK4 (human)", "value": 92.4, "unit": "%"}, {"measurement": "residual activity", "setting": "GSK3B (human)", "value": 102, "unit": "%"}, {"measurement": "residual activity", "setting": "MLTK (human)", "value": 102, "unit": "%"}, {"measurement": "residual activity", "setting": "EPHB4 (human)", "value": 104, "unit": "%"}, {"measurement": "residual activity", "setting": "DMPK (human)", "value": 94.2, "unit": "%"}, {"measurement": "residual activity", "setting": "SRC (human)", "value": 102, "unit": "%"}, {"measurement": "residual activity", "setting": "MST1R (human)", "value": 97.2, "unit": "%"}, {"measurement": "residual activity", "setting": "EPHA5 (human)", "value": 102, "unit": "%"}, {"measurement": "residual activity", "setting": "MYLK (human)", "value": 98.5, "unit": "%"}, {"measurement": "residual activity", "setting": "MARK2 (human)", "value": 84.9, "unit": "%"}, {"measurement": "residual activity", "setting": "AURKA (human)", "value": 105, "unit": "%"}, {"measurement": "residual activity", "setting": "PNCK (human)", "value": 98.5, "unit": "%"}, {"measurement": "residual activity", "setting": "CHEK2 (human)", "value": 91.7, "unit": "%"}, {"measurement": "residual activity", "setting": "ULK3 (human)", "value": 112, "unit": "%"}, {"measurement": "residual activity", "setting": "FGFR4 (human)", "value": 104, "unit": "%"}, {"measurement": "residual activity", "setting": "FER (human)", "value": 99.5, "unit": "%"}, {"measurement": "residual activity", "setting": "CSK (human)", "value": 96.7, "unit": "%"}]}
{"smiles": "Oc1cccc(-c2nc(N3CCOCC3)c3oc4ncccc4c3n2)c1", "values": [{"measurement": "residual activity", "setting": "LYN (human)", "value": "102% and 98.3%"}, {"measurement": "residual activity", "setting": "GRK4 (human)", "value": 102, "unit": "%"}, {"measurement": "residual activity", "setting": "CDK6 CCND3 (human)", "value": 89.7, "unit": "%"}, {"measurement": "residual activity", "setting": "NEK3 (human)", "value": 92.9, "unit": "%"}, {"measurement": "residual activity", "setting": "DAPK3 (human)", "value": 93.1, "unit": "%"}, {"measurement": "residual activity", "setting": "PRKG1 (human)", "value": "109% and 96.3%"}, {"measurement": "residual activity", "setting": "BMX (human)", "value": 101, "unit": "%"}, {"measurement": "residual activity", "setting": "BTK (human)", "value": 95.2, "unit": "%"}, {"measurement": "residual activity", "setting": "HIPK1 (human)", "value": 101, "unit": "%"}, {"measurement": "residual activity", "setting": "CSNK2A1 (human)", "value": 94.7, "unit": "%"}, {"measurement": "residual activity", "setting": "TYRO3 (human)", "value": 102, "unit": "%"}, {"measurement": "residual activity", "setting": "SGK2 (human)", "value": 96.7, "unit": "%"}, {"measurement": "residual activity", "setting": "RPS6KA2 KD1 KD2 (human)", "value": 88.1, "unit": "%"}, {"measurement": "residual activity", "setting": "PKN1 (human)", "value": 101, "unit": "%"}, {"measurement": "residual activity", "setting": "STK10 (human)", "value": 92.1, "unit": "%"}, {"measurement": "residual activity", "setting": "TLK2 (human)", "value": 102, "unit": "%"}, {"measurement": "residual activity", "setting": "FGFR2 (human)", "value": 95.7, "unit": "%"}, {"measurement": "residual activity", "setting": "RPS6KA4 KD2 (human)", "value": 104, "unit": "%"}, {"measurement": "residual activity", "setting": "STK3 (human)", "value": 105, "unit": "%"}, {"measurement": "residual activity", "setting": "DYRK2 (human)", "value": 97.6, "unit": "%"}, {"measurement": "residual activity", "setting": "JAK3 JH1 JH2 (human)", "value": 99, "unit": "%"}, {"measurement": "residual activity", "setting": "MAP3K8 (human)", "value": 99.2, "unit": "%"}, {"measurement": "residual activity", "setting": "GRK7 (human)", "value": 100, "unit": "%"}, {"measurement": "residual activity", "setting": "MAPK12 (human)", "value": 93.4, "unit": "%"}, {"measurement": "residual activity", "setting": "PLK1 (human)", "value": 97.9, "unit": "%"}, {"measurement": "residual activity", "setting": "IRAK4 (human)", "value": 104, "unit": "%"}, {"measurement": "residual activity", "setting": "GSK3B (human)", "value": 94.8, "unit": "%"}, {"measurement": "residual activity", "setting": "MLTK (human)", "value": 96.2, "unit": "%"}, {"measurement": "residual activity", "setting": "EPHB4 (human)", "value": 104, "unit": "%"}, {"measurement": "residual activity", "setting": "DMPK (human)", "value": 99.5, "unit": "%"}, {"measurement": "residual activity", "setting": "SRC (human)", "value": 97.2, "unit": "%"}, {"measurement": "residual activity", "setting": "MST1R (human)", "value": 94.3, "unit": "%"}, {"measurement": "residual activity", "setting": "EPHA5 (human)", "value": 102, "unit": "%"}, {"measurement": "residual activity", "setting": "MYLK (human)", "value": 77.1, "unit": "%"}, {"measurement": "residual activity", "setting": "MARK2 (human)", "value": 92.9, "unit": "%"}, {"measurement": "residual activity", "setting": "AURKA (human)", "value": 91.9, "unit": "%"}, {"measurement": "residual activity", "setting": "PNCK (human)", "value": 96.7, "unit": "%"}, {"measurement": "residual activity", "setting": "CHEK2 (human)", "value": 90.4, "unit": "%"}, {"measurement": "residual activity", "setting": "ULK3 (human)", "value": 99.7, "unit": "%"}, {"measurement": "residual activity", "setting": "FGFR4 (human)", "value": 102, "unit": "%"}, {"measurement": "residual activity", "setting": "FER (human)", "value": 97.8, "unit": "%"}, {"measurement": "residual activity", "setting": "CSK (human)", "value": 88.3, "unit": "%"}]}
